The test system of assay [1] is PTI-specific marker genes in Arabidopsis leaves. Description: Gene expression analysis of PTI marker genes by qRT-PCR. In kind it is in vivo, Arabidopsis thaliana. The note with it: infiltrated leaves, 1.0 μM elicitor. On the procedure:
RNA extraction and gene expression analysis by qRT-PCR: Total RNA was extracted from the entire infiltrated leaf using RNeasy plant mini kit (74104; Qiagen) with DNase I (79254; Qiagen) treatment. cDNA synthesis and RT-PCR were performed as described (Park et al., 2019). Expression of the Arabidopsis Act2 (At3g18780) was used as an internal control. Primer pairs for quantitative RT-PCR were designed using Primer-BLAST (https://www.ncbi.nlm.nih.gov/tools/primer-blast/index.cgi) or manually by eye.
flg22 and elf18 were used to induce plant innate immunity responses without related pathogenic symptoms (Bektas & Eulgem, 2015). To reduce variability between biological samples, Arabidopsis wild-type (Col-0) and mutant plants were grown under short-day conditions for about 5-6 weeks with about 17-18 leaves (Farmer et al., 2013; Kurenda et al., 2019) (FIG. 1A). The abaxial side of leaf 7th or 8th was infiltrated with a needleless syringe containing (50 μl) water, 1.0 μM flg22 or 1.0 μM elf18 (FIG. 1B). […] However, compared to mock infiltration, infiltration of either elicitor induced expression of PTI-specific marker genes of the PTI pathway but with different kinetics (FIGS. 3A-3C). […] Expression of most activated genes returned to basal levels by 24 hours (FIGS. 3A-3C) although several genes (PR1, WRYK29, and WRKY53) still maintained high expression levels at this time point.
(In general: Quantitative PCR measures a nucleic acid by following its amplification.)

Assay [2] deals with PTI response in Arabidopsis thaliana (Col-0) leaves. Kind of assay: Raman spectroscopy of elicitor-infiltrated leaves, Elicitor Response Factor (ERF). The assay is classed as in vivo. The conditions noted are these: for ERF (Elicitor Response Factor) value: WT Col-0, 1 μM elicitor, proximal region, 10 hpi; for ERF value: proximal region (PR), 48 and 72 hpi. On the procedure: Plant growth and elicitor/pathogen infiltration: Arabidopsis thaliana (Col-0) wild-type (WT) and mutants including fls2 (salk_062054), efr-2 (salk_068675), bak1 (salk_116202), bik1 (salk_005291), rbohd (salk_083046), pub12/13 (Zhou et al., 2018) and pub25/26 (Wang et al., 2018) were used. Ten-day old seedlings grown on soil were transferred to a growth room at 70% humidity and 21° C. with a 10-h-light/14-h-dark photoperiod (short-day condition). Light intensity was 100 μmol/m^2s^−1. Five to 6 week-old plants with about 17-18 leaves were used. Flg22 contains the 22-amino acid sequence […] (SEQ ID NO:1) corresponding to a conserved motif of the amino terminus of flagellin from Pseudomonas species. Elf18 contains the sequence Ac[…] (SEQ ID NO:2) corresponding to the conserved N-terminal 18-amino acid peptide of the bacterial protein elongation factor Tu (EF-Tu). These peptides (Axil Scientific Pte Ltd) were dissolved in sterile H2O to a concentration of 5 mM and aliquots of 100 μM stock solution were stored at −20° C. 3-hydroxydecanoic acid (Sigma, H3648) (Kutschera et al., 2019) was dissolved in ethanol to a concentration of 5 mM, and Chitin, GlcNacβ1-4[GlcNacβ1-4GlcNAc]5GlcNAc (ELICITYL, GLU437) was dissolved in water to a concentration of 5 mM. Aliquots of 100 μM stock solutions were stored at −20° C.
Custom-built Raman spectroscopy system and spectral data analysis: The Raman spectroscopy system with an 830 nm excitation wavelength was previously described (Huang et al., 2020). The Raman shift axis was calibrated using a polystyrene sample (Creely et al., 2005) and Raman spectra were recorded in the range of 400 cm^−1-1700 cm^−1. The 830 nm excitation wavelength has the advantage of deeper penetration depth and generating comparatively lower fluorescence background signal from the leaf tissue, resulting in spectra with a higher signal to noise ratio (SNR). The pre-processing of the Raman spectra consisted of cosmic ray removal and smoothing with the Savitzky-Golay filter function (MATLAB Inc., USA) with 5th order polynomial and frame length of 11. The Raman spectra presented here were obtained after removing any residual fluorescence background using a polynomial subtraction method with non-negative constraints (Lieber & Mahadevan-Jansen, 2003).
For Arabidopsis, two plants from each independent biological sample were investigated (Huang et al., 2020). The 7th or 8th leaf of 5-6 week-old plants were used for infiltrations (FIGS. 1A-1E) At the designated time after infiltrations, leaf discs (6 mm diameter) were excised with a puncher from regions proximal to the infiltrated sites (FIG. 2A). Two leaf discs were obtained from each elicitor-treated leaf, one from the left and the other from the right side of the central leaf vein. A total of 4 leaf discs were analyzed for each genotype per experiment. The leaf discs were placed with a drop of water between a fused silica slide of thickness 0.5 mm and a fused silica coverslip, which was 100 μm thick. Three locations were measured in each leaf disc, with 5 Raman spectra acquired per location and an exposure time of 10 s per spectrum. Thus, an average Raman spectrum of an independent biological sample was obtained from the mean of total 60 Raman spectra. The experiments were repeated with 3-4 independent biological samples.
A custom-built near infrared excitation Raman instrument (FIG. 1E) to measure Raman spectra from mock- or elicitor-infiltrated leaf samples (FIGS. 2B-2C). […]

Assay [3] shares this test system. The assay is described as above. The assay is classed as in vivo. The note with it: WT, 1 μM elicitor, distal region (DR).
The mark [4] stands for this setting: fls2 mutant, 24 hpi, 1 μM elicitor.

Two substances from patent US20260243686A1, “REAL TIME DETECTION AND QU[…] PLANT INNATE IMMUNITY RESPONSE USING RAMAN SPECTROSCOPY” (TEMASEK LIFE SCIENCES […], priority 2021, published 2026) can be followed below.

Ends that are not written are not given here.

For “QRLSTGSRINSAKDDAAGLQIA (SEQ ID NO:1) (listed as Pseudomonas sp.) [flg22]”, the “innate immunity response (gene expression and callose deposition data together)” value in assay [1] is “induced rapid and robust innate immunity response”. Also, the “ERF (Elicitor Response Factor) value” in assay [2] is 1.12×10^4. Besides, the “increase of ERF value from 10 hpi to 24 hpi” value in assay [2] (WT, 1 μM elicitor) is on record as “about 8 times”. The ERF value entry in assay [2] (WT, 1 μM elicitor) was “decreased to almost zero”; in assay [3], “Low ERF values”. The “Raman peak intensity at 789.7 cm^−1” value in assay [2] (WT, 24 hpi) is on record as “statistically significant change”. Besides, the Raman/ERF response entry in assay [2] (efr-2 mutant, 24 hpi, 1 μM elicitor) is “responded”; in assay [2] (setting [4]) it was “refractory”.

“AcSKEKFERTKPHVNVGTIG (SEQ ID NO:2) (Ac-SKEKFERTKPHVNVGTIG; listed as Pseudomonas sp.) [elf18, conserved N-terminal 18-amino acid peptide of the bacterial protein elongation factor Tu (EF-Tu)]”: the “innate immunity response (gene expression and callose deposition data together)” value in assay [1] is “induced rapid and robust innate immunity response”. For the same substance, the “ERF (Elicitor Response Factor) value” in assay [2] was 0.63×10^4. In addition, the ERF value result in assay [2] (WT, 1 μM elicitor) was “decreased to almost zero”; in assay [3], “Lower ERF value”. The “Raman peak at 1065 cm^−1” value in assay [2] (WT, 24 hpi) is listed as “specifically resulted in changes”. Also, the Raman/ERF response result in assay [2] (setting [4]) is on record as “remained responsive”.
